Patent US10456443B2, “Peptidyl calcineurin inhibitors” (OHIO STATE INNOVATION FOUNDATION, priority 2014, dated 2019)
Non-standard residues stand in square brackets, D forms with d. Residues, ends and D or L forms follow the SMILES beside them. Tle = CC(C)(C)[C@H](N)C(=O)O

Legend:
macrophage cells = assay: Inflammatory cytokine production in macrophage cells with LPS stimulation; format: cell-based
[1] = test system: HeLa cells stably transfected with GFP-NFAT; assay: GFP-NFAT translocation assay, live-cell confocal microscopy; conditions: 500 nM peptide, 2 h preincubation, 10 min ionomycin stimulation
[2] = Cellular uptake of cell penetrating peptides; format: cell-based; conditions: versus R11
calcineurin (CN) [3] = target: T1, calcineurin (CN) (Homo sapiens, UniProt Q08209)
calcineurin (CN) [4] = target: T1, calcineurin (CN); conditions: read-out: IC50, inhibition of the binding of FITC-ZIZIT to CN; FITC-ZIZIT 100 nM, CN 150 nM, unlabeled competing peptide 0-20 μM

T1 sequence (Q08209 2-347 limits assumed): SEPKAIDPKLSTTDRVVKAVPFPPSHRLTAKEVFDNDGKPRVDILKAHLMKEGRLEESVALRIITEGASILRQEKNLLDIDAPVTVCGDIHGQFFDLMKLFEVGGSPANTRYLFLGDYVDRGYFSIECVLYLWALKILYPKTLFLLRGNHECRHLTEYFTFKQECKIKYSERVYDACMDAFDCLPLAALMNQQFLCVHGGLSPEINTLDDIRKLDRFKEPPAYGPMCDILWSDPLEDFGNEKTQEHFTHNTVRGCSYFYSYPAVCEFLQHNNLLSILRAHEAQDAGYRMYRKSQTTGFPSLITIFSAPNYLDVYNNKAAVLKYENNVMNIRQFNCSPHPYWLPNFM

Compound: Ac-RRRRRRRRRRRC-SPDP-GPHPZIZITG-Cys(Ψ^Me,MePro)-HEEG-Propyl [R11-ZIZIT-cisPro]
- attenuating the production of inflammatory cytokines (macrophage cells; macrophages, 1 μM, compared with 50 μM R11-VIVIT): significantly more effective than 50 μM R11-VIVIT
- fold more potent than R11-VIVIT in cellular assays (macrophage cells; versus R11-VIVIT): approximately 100 fold
- inhibition of the nuclear translocation of GFP-NFAT [1]: ~95%

Compound: cyclo(fΦRrRrQ) [CP9]
- fold more active than R11 for cellular uptake [2]: approximately 12 fold

Compound: CC[C@H](C)[C@H](NC(=O)[C@@H](NC(=O)[C@@H](NC(=O)[C@@H](NC(=O)[C@@H]1CCCN1C(=O)[C@H](Cc1c[nH]cn1)NC(=O)[C@@H]1CCCN1C(=O)CN)C(C)(C)C)[C@@H](C)CC)C(C)(C)C)C(=O)N[C@H](C(=O)NCC(=O)N1CCC[C@H]1C(=O)N[C@@H](Cc1c[nH]cn1)C(=O)N[C@@H](CCC(=O)O)C(=O)N[C@@H](CCC(=O)O)C(N)=O)[C@@H](C)O [ZIZIT, GPHPZIZITGPHEE] (H-GPHP[Tle]I[Tle]ITGPHEE-NH2)
- fold higher affinity for CN than VIVIT (calcineurin (CN) [3]; ZIZIT versus VIVIT): 10 fold
- Kd (calcineurin (CN) [3]; read-out: KD against CN, FA assay, N-terminal 5(6)-SFX labeled peptides (100 nM)): 43 ± 12 nM
- IC50 (calcineurin (CN) [4]): 280 ± 90 nM
